Experiments:
[1] = system: HCV sub-genomic replicon in FCA 4 cells; type: cell-based, hepatitis C virus
From the text: FCA-4 sub genomic replicon was bicistronic construct composed of the HCV IRES (nucleotides 1 to 377 of the 5′NCR); the neomycin phosphotransferase (neo) gene; the encephalomyocarditis IRES, which mediates the translation of HCV nonstructural proteins NS3 through NS5; and the 3′NCR as shown in FIG. 2. […] FCA-4 sub-genomic replicon consists of single adaptive mutation and a deletion of a serine residue at position 1176 (Guo et al, 2001).
The bicistronic RNA molecule contains the HCV IRES and a few core-coding sequences, which are followed by neomycin phosphotransferase gene (Neor). These sequences are followed by the encephalomyocarditis virus IRES placed in front of HCV sequences encoding nonstructural protein NS3 to NS5B, terminating at the HCV 3NCR.
To determine the antiviral effect against HCV, FCA 4 cells were seeded in six well plates. After 24 h, media containing 20 μM of test compound was added to the plates. Cells were incubated at 37° C. in CO2 incubator for additional 48 h. At the end of the incubation, cells were harvested, RNA was extracted and cDNA were generated by oligo dT priming. cDNA was amplified by PCR using primers specific to the 5′UTR and NS5B gene of HCV. Amplification of GAPDH mRNA served as an internal control. […]

[2] = system: HCV 3a genotype in MDBK cells; assay: Synergy with interferon-α against HCV in MDBK cells (real time Quantitative RT-PCR); type: cell-based, hepatitis C virus; conditions: with interferon-α 5 IU/well, 6 hrs pre-incubation, HCV 3a 2×10^4 copies per well, 18 hrs
Description: Surprising synergism was recorded when Compound 1 was combined with Interferon alpha. […] MDBK cells were incubated for 6 hrs with compounds and interferon alone, or combination of compound and interferon in a 96-well plat. After 6 hrs cells were infected with 2×10^4 copies of HCV 3a genotype per well and incubated for additional 18 hrs. At the end of incubation period, total RNA was extracted by Gentra kit, and the levels of HCV RNA remaining were determined, by real time Quantitative RT-PCR assay and are shown as percentage of HCV RNA survival in cells. Results are represented as the average and standard error for three independent experiments.

HCV = conditions: Ribavirin alone, cited from earlier work
HCV protease = HCV protease (Hepatitis C virus genotype 1a, UniProt P26664); conditions: SDS-PAGE and autoradiography assay; cited from earlier work
Sequence of HCV protease (P26664 1027-1657): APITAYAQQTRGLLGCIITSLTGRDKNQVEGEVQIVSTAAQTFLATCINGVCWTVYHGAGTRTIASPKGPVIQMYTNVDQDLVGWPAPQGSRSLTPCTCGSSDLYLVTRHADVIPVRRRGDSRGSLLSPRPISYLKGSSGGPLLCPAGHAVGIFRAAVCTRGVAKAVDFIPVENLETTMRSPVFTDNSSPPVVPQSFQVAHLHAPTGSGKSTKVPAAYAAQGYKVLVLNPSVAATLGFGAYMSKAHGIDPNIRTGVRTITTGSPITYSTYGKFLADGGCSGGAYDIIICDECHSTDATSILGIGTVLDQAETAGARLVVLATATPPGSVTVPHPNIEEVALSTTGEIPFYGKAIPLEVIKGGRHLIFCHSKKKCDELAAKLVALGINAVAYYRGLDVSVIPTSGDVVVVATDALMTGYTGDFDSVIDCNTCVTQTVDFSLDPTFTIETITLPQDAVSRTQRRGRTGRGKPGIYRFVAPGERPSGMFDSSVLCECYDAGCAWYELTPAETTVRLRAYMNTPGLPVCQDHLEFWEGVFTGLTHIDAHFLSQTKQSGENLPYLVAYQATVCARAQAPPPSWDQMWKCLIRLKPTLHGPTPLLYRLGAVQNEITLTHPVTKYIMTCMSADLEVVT

Nn1c(-c2ccc([N+](=O)[O-])cc2)nc2ccccc2c1=O [Compound 1, 3-amino-2-(4-nitrophenyl)-4-(3H)-quinazolinone]
Cytotoxicity in relation to antiviral suppression [1]: independent of cytotoxicity | HCV RNA expression ([1]; 20 μM, 48 h, PCR with primers for 5′UTR and NS5B): inhibited HCV RNA expression significantly | Antiviral activity in combination with interferon-α (HCV RNA survival) [2]: synergistic effect

NC(=O)c1ncn([C@@H]2O[C@H](CO)[C@@H](O)[C@H]2O)n1 [Ribavirin, 1-β-D-ribofuranosyl-1-1,2,4-triazole-3-carboxamide]
Serum levels of HCV-RNA (HCV; patients): does not lower | Patients in whom serum amino transferase levels are reduced to normal (HCV): 40%

CCCC(=O)c1cc2c(c(O)c1C)C(=O)C(=O)c1c(O)cccc1-2 [Sch 68631]
Activity against HCV protease (HCV protease): micromolar activity
